Each structure is given as a SMILES string. pIC50: −log10 of the molar value.

Here are results for 2 compounds from ChEMBL document CHEMBL4266023, “NMR-Based Investigation of Hydrogen Bonding in a Dihydroanthracen-1(4 H)one from Rubia philippinensis and Its Soluble Epoxide Hydrolase Inhibitory Potential” (J Nat Prod, 2018).

The target of the assay is T1, Bifunctional epoxide hydrolase 2 (Homo sapiens, UniProt P34913).
T1 sequence (P34913 whole entry): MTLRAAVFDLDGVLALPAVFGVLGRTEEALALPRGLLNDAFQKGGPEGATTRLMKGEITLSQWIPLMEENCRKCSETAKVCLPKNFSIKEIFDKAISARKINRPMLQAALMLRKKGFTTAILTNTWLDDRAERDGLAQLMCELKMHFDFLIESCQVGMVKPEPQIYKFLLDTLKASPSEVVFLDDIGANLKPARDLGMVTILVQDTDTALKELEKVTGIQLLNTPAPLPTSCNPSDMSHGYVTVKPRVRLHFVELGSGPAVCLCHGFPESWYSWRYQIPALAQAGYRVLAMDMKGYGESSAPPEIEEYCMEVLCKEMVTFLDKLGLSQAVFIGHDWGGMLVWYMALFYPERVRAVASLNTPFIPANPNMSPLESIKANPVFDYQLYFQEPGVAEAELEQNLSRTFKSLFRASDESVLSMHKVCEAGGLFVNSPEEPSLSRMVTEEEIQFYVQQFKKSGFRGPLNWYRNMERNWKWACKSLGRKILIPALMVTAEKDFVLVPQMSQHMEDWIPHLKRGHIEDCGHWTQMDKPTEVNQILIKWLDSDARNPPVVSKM
Briefly: Inhibition of soluble epoxide hydrolase (unknown origin) using NEPC as substrate after 1 hr by fluorescence assay.

As to `CC1=CC[C@@H]2C(=C(O)c3ccccc3[C@@H]2O)C1=O`, the negative logarithm of the IC50 (pIC50) (as a rule, the IC50 on a negative log10 scale, so that one unit is a factor of ten) was 5.96.

The compound `Cc1ccc2c(O[C@@H]3O[C@H](CO)[C@@H](O)[C@H](O)[C@H]3O)c3ccccc3c(O[C@@H]3O[C@H](CO)[C@@H](O)[C@H](O)[C@H]3O)c2c1` had a pIC50 of 6.52.
